Earlier results, collected in patent US8679304B2, “Apparatus for creating bioactive solution” (priority 2008, dated 2014).

System: Cryptosporidium oocysts
Conditions: pH 7

Question: For `[O][Cl+][O-]` [chlorine dioxide], which “approximate CT values for 99% inactivation” value is on record?
Answer: ~78
